Reference: paper PMC5760527, “Connexin 43 Hemichannel as a Novel Mediator of Sterile and Infectious Inflammatory Diseases” (Scientific Reports, 2018)

Assays:
[1] = tested on: macrophage Cx43 hemichannel activities, RAW 264.7 cells; experiment: Lucifer Yellow dye uptake, hemichannel permeability, calcium-depleted; type: cell-based, murine; conditions: P5 20 μM, LPS 0.5 μg/ml, 16 h, LY 15 min, P < 0.05 versus +LPS
Text: Because connexon is the structural unit for both hemichannel (1 connexon) and gap junction (2 connexons from opposing cells), which are both permeable to similar molecular weight molecules, such as the Lucifer yellow (LY). Thus, the LY dye uptake could be used to determine the channel permeability of both hemichannel (as indicated by the rate of LY entry into the cells) and gap junction channels (as judged by the distance of intercellular LY diffusion). The LY dye uptake assay relied on the ability of this dye present in the extracellular milieu to cross the plasma membrane and became concentrated inside of the cell, which could be quantified by fluorescence microscopy. To determine the effects of Cx43 mimetic peptides on hemichannel permeability, RAW 264.7 cells were subjected to LPS stimulation (0.5 µg/ml, 16 h) before replacing the medium with fresh DMEM containing various Cx43 mimetic peptides, GAP26 (100 µM), TAT-GAP19 (200 µM) or P5 (20 µM). Following a brief incubation (15 min), EGTA (1 mM) was added to deplete free calcium prior to the addition of LY dye (1%). Fifteen min later, cells were fixed with 2% paraformaldehyde, and the number of LY-positive cells was counted. The ratio of LY-positive cells vs. total cell counts (DAPI staining) was used as the measurement of hemichannel permeability.

[2] = tested on: Panx1 hemichannel permeability, macrophages; experiment: Lucifer Yellow dye uptake in presence of calcium (Panx1 hemichannel permeability); type: cell-based
[3] = tested on: Cx43 gap junctions, NIH 3T3 fibroblasts; experiment: Cx43 gap junction formation, immunostaining; type: cell-based; conditions: P5 20 µM, overnight
Experimental: Primary peritoneal macrophages were isolated from Balb/c mice, stimulated with LPS or SAA for 6 h, and immunostained with an affinity-purified rabbit anti-Cx43 IgGs (1:1,000 dilution at 4 °C) as previously described. Non-immune NIH 3T3 cells were grown on glass coverslips to confluency to allow formation of gap junctional channels. The growth medium was changed to DMEM before an overnight incubation with P5 (20 µM). Cells were then fixed with 2% paraformaldehyde, incubated for 16 hr with a well-characterized affinity-purified rabbit anti-Cx43 IgGs as previously described. After extensive washing, cells were incubated with donkey anti-rabbit Alexa 488 (Invitrogen) for 1 hr at room temperature. The coverslips were subsequently mounted on glass slides using anti-fade medium and examined using an epi-fluorescence microscope.

[4] = tested on: gap junctional intercellular communication, NIH 3T3 fibroblasts; experiment: Scrape-loading assay of GJ intercellular communication; type: cell-based; conditions: LY (444 Da) and rhodamine dextran (10,000 Da), overnight or 20 min incubation, 2 min diffusion
Experimental: We used NIH 3T3 fibroblasts to investigate the effects of Cx43 mimetic peptides on GJ permeability employing a technique termed scrape-loading. After overnight or 20 min incubation with or without Cx43 mimetic peptides in DMEM, EGTA was added to DMEM to deplete free calcium. Immediately afterwards, 1% LY and 1% rhodamine dextran was added into PBS, followed by scraping the cell monolayer with a pipette tip loading tracers into cytoplasmic compartment of scraped cells. Tracers were allowed to diffuse to adjacent cells for 2 min before immobilized by PF fixation for 10 minutes. Cells were subsequently extensively washed in PBS three times and coversliped to allow examination of LY diffusion.

[5] = tested on: LPS-induced ATP release, RAW 264.7 cells; experiment: ATP release assay; type: cell-based, murine; conditions: P5 20 µM; LPS 1 µg/ml; RAW 264.7, serum-free DMEM; luciferin:luciferase; P < 0.05 versus +LPS
Experimental: In addition to the LY dye uptake, we also employed the ATP release assay to measure the Cx43 hemichannel activities. The current gold standard for ATP quantification relied on luciferin:luciferase chemistry where the enzyme luciferase catalyzed the oxidation of ATP and luciferin ultimately resulting in the generation of a photon which could be quantified by luminometry using a luminometer plate reader (Synergy H1 Hybrid, Biotek, Winooski, U.S.A.) and the amount of ATP was calculated from standard curve. Briefly, RAW 264.7 cells were cultured in serum-free DMEM medium, and stimulated with LPS (1 µg/ml) in the absence or presence of Cx43 mimetic peptide (P5, 20 µM). The cell-conditioned culture medium was collected and subjected to ATP measurement. We used the Molecular Probes® ATP Determination Kit (Cat. # A22066, Life Technologies), which was based on luciferase’s absolute requirement for ATP in producing light (emission maximum ~560 nm at pH 7.8), to measure the extracellular ATP levels in LPS-stimulated RAW 264.7 cells.

[6] = tested on: LPS-induced trypan blue uptake, RAW 264.7 cells; experiment: Trypan blue uptake assay; type: cell-based, murine; conditions: P5 10 µg/ml, LPS 1.0 µg/ml, 16 h, 0.08% trypan blue, P < 0.05 versus +LPS
Experimental: Specifically, murine macrophage-like RAW 264.7 cells were stimulated with LPS (1.0 µg/ml) in the absence or presence of P5 peptide (10 µg/ml) for 16 h, and the culture medium was then replaced with 1 × PBS containing 0.08% trypan blue (Cat. # 15250-061, Invitrogen). Phase contrast images of multiple fields were randomly captured, and the percentage of trypan blue-stained cells was calculated.

[7] = tested on: HMGB1 release, RAW 264.7 cells; experiment: HMGB1 release, Western blotting; type: cell-based, murine; conditions: LPS 0.5 µg/ml, 16 h, P < 0.05 versus +LPS
[8] = tested on: LPS-induced production of nitric oxide; experiment: Nitric oxide production; type: cell-based; conditions: data not shown
[9] = tested on: hepatic I/R injury, C57BL/6 mice; experiment: Hepatic ischemia/reperfusion injury; type: in vivo, Male C57BL/6 mice; conditions: P5 10.0 mg/kg i.v. at onset of reperfusion; 60 min ischemia; 24 h after onset of ischemia; P < 0.05 versus saline (I/R)
Experimental: Male C57BL/6 mice (20–25 g) were subjected to hepatic ischemia/reperfusion by temporally clamping the hepatic artery and portal vein for 60 min, which typically produced ischemia in 70% of the liver. At the beginning of the reperfusion, 0.2 ml saline, P5 (10.0 mg/kg BW) was injected via the internal jugular vein. At 24 h after the onset of ischemia, animals were euthanized to harvest blood to measure serum levels of hepatic injury markers such as alanine aminotransferase (ALT) and aspartate aminotransferase (AST) using commercial kits.

Q: How did the “effect on endotoxin-induced hemichannel activities (LY dye uptake)” value [1] turn out when “ENVCYD [P5, cysteine-containing Cx43 EL1 mimetic hexamer peptide, P5 (ENVCYD)]” was run?
A: significantly inhibited the endotoxin-induced elevation of hemichannel activities

Q: And the “LY uptake in calcium-containing medium” value [2]?
A: did not alter macrophage LY uptake in calcium-containing medium

Q: And the “GJ formation (Cx43 punctate immunostaining)” value [3]?
A: did not alter the punctate immunostaining profile of Cx43

Q: And the “gap junctional transfer of LY / RD immobility” value [4]?
A: no obvious difference in the LY diffusion or RD immobility patterns

Q: What about the “LPS-induced ATP release” value [5] of the same substance?
A: significantly attenuated the LPS-induced ATP release

Q: And the “LPS-induced trypan blue uptake” value [6]?
A: significantly suppressed the LPS-induced elevation of trypan blue uptake

Q: And the “inhibition of LPS-induced HMGB1 release” value [7]?
A: significantly inhibited by P5 in a dose-dependent fashion

Q: What about the “LPS-induced production of nitric oxide” value [8] of the same substance?
A: did not affect the LPS-induced production of nitric oxide

Q: What about the “serum alanine aminotransferase (ALT)” value [9] of the same substance?
A: significant reduction of serum levels

Q: And the “serum aspartate aminotransferase (AST)” value [9]?
A: significant reduction of serum levels

Q: And the “systemic release of LDH” value [9]?
A: significantly attenuated
